The results in this text go back to patent publication US10316039B2, “P2X3 and/or P2X2/3 compounds and methods” (Asana Biosciences, LLC, priority 2013, dated 2019).

For orientation: IC50 means the midpoint of a concentration-inhibition curve.

One assay has as its target T1, P2X3 (UniProt P56373).
T1 sequence (P56373 1-397): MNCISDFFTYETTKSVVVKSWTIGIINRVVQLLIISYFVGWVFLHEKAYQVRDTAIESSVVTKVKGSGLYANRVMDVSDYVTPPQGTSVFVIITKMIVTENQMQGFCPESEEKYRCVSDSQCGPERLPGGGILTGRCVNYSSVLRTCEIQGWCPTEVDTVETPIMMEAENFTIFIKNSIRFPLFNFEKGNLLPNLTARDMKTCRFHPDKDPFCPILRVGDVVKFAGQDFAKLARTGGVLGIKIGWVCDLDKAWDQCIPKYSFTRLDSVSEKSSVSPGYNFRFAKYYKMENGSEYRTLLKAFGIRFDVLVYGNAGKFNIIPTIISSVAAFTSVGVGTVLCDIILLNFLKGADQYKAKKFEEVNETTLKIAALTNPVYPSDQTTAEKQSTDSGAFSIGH
Briefly: P2X3 FLIPR intracellular calcium assay. It counts as cell-based. To be noted: agonist at EC75, species (human or rat) not given. The method in brief:
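Human P2X3-HEK, human P2X2/3-TRex293, rat P2X2/3-TRex293 or rat P2X3 TRex-CHO cells loaded with Calcium 4 dye (1.8 mM probenecid, pH 7.4).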
(In general: Calcium flux is commonly read through the fluorescence of an indicator in the cells.)

In a further assay the target is T2, P2X2/3 (Homo sapiens, UniProt P56373+Q9UBL9).
T2 sequence (Q9UBL9 1-471): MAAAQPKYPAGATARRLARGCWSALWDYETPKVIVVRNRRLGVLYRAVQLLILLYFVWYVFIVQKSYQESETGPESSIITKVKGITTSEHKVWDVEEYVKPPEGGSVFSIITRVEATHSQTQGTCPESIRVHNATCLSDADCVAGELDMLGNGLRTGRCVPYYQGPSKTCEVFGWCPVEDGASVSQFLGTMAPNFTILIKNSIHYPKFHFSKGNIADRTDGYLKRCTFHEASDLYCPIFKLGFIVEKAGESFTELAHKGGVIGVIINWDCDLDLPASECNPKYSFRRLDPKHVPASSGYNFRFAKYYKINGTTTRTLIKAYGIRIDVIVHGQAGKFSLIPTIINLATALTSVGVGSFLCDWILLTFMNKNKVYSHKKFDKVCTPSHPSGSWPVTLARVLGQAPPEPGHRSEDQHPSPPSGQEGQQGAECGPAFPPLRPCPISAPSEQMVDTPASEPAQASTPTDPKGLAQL
T2 sequence (P56373 1-397): T1 sequence (P56373 1-397)
Nature of the assay: P2X2/3 FLIPR intracellular calcium assay. Format: cell-based. To be noted: agonist at EC75, species (human or rat) not given. A digest of the protocol: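 Stable human P2X2/3 TRex293 cells (doxycycline-induced) loaded with Calcium 4 dye; compounds, 11-point half-log series from 2 mM top stock, preincubated 15 min at RT in HBSS/HEPES pH 7.4 with 1.8 mM CaCl2. Agonist added at EC75; fluorescence change versus no-compound wells gave IC50.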

As for `COc1ncc(CNC(=O)c2cc(-n3nnnc3C(F)F)c3ncc(-c4ccc(C)s4)n3c2)cn1` [Example 169], the IC50 on P2X3 and at P2X2/3 was 1 to 100 nM throughout.

Regarding `C[C@H](NC(=O)c1cc(-n2nnnc2C(F)F)c2ncc(-c3ccc(Cl)s3)n2c1)c1nnc[nH]1` [Example 170], the IC50 on P2X3 and at P2X2/3 was 1 to 100 nM each time.

`CC[C@H](NC(=O)c1cc(-n2nnnc2C(F)F)c2ncc(-c3ccc(C)s3)n2c1)c1nnc[nH]1` [Example 171]: the IC50 at P2X3 and on P2X2/3 was 1 to 100 nM throughout.

Take `Cc1ncc(CNC(=O)c2cc(-n3nnnc3C(F)F)c3ncc(-c4ncc(C)s4)n3c2)cn1` [Example 172]: the IC50 on P2X3 and on P2X2/3 was 1 to 100 nM each time.

On to `Cc1ccc(CNC(=O)c2cc(-n3nnnc3C(F)F)c3ncc(-c4ncc(C)s4)n3c2)cn1` [Example 173], for which the half-inhibitory concentration (IC50) at P2X3 and on P2X2/3 was 100 to 1000 nM each time.

On to `CC[C@H](NC(=O)c1cc(-n2nnnc2C(F)F)c2ncc(-c3ccc(Cl)s3)n2c1)c1nnc[nH]1` [Example 174], for which the IC50 on P2X3 and on P2X2/3 was 1 to 100 nM throughout.

`C[C@H](NC(=O)c1cc(-n2nnnc2C2CC2)c2ncc(-c3ccc(Cl)s3)n2c1)c1nnc[nH]1` [Example 175]: the figures for the IC50 at P2X3 and at P2X2/3 were 100 to 1000 nM and 1000 to 10000 nM, respectively.

In the case of `Cc1ncc(CNC(=O)c2cc(-n3nnnc3C(F)F)c3ncc(-c4ccc(Cl)s4)n3c2)cn1` [Example 176], the IC50 at P2X3 and at P2X2/3 was 100 to 1000 nM throughout.

For the compound `Cc1ncc(CNC(=O)c2cc(-n3nnnc3C(F)F)c3ncc(-c4ccc(C)s4)n3c2)cn1` [Example 177], the IC50 at P2X3 and on P2X2/3 was 1 to 100 nM in each case.

As for `CCc1nnnn1-c1cc(C(=O)N[C@@H](C)c2nnc[nH]2)cn2c(-c3ccc(C)s3)cnc12` [Example 178], the 50% inhibitory concentration (IC50) on P2X3 is 1 to 100 nM; at P2X2/3, 100 to 1000 nM.

Consider `CCCc1nnnn1-c1cc(C(=O)N[C@@H](C)c2nnc[nH]2)cn2c(-c3ccc(C)s3)cnc12` [Example 179], for which the IC50 at P2X3 and at P2X2/3 was 1 to 100 nM in each case.

Turning to `Cc1nnc([C@@H](C)NC(=O)c2cc(-n3nnnc3C(F)F)c3ncc(-c4ccc(C)s4)n3c2)o1` [Example 180], the IC50 at P2X3 and on P2X2/3 was 1 to 100 nM in each case.

Turning to `Cc1ccc(-c2cnc3c(-n4nnnc4CC(F)(F)F)cc(C(=O)N[C@@H](C)c4nnc[nH]4)cn23)s1` [Example 181], the IC50 at P2X3 and at P2X2/3 was 1 to 100 nM each time.

Regarding `Cc1ccc(-c2cnc3c(-n4nnnc4C(C)(F)F)cc(C(=O)N[C@@H](C)c4nnc[nH]4)cn23)s1` [Example 182], the IC50 on P2X3 and at P2X2/3 was 1 to 100 nM each time.

For `Cc1ncc(CNC(=O)c2cc(-n3nnnc3C(F)F)c3ncc(-c4ccc(C)o4)n3c2)cn1` [Example 183], the IC50 on P2X3 and at P2X2/3 was 100 to 1000 nM throughout.

On to `C[C@H](NC(=O)c1cc(-n2nnnc2C(C)(F)F)c2ncc(-c3ccc(Cl)s3)n2c1)c1nnc[nH]1` [Example 184], for which the IC50 on P2X3 and on P2X2/3 was 1 to 100 nM throughout.

For `Cc1cnc(CNC(=O)c2cc(-n3nnnc3C(F)F)c3ncc(-c4ncc(C)s4)n3c2)cn1` [Example 185], the IC50 at P2X3 was 100 to 1000 nM; on P2X2/3, 1000 to 10000 nM.

As for `Cc1noc([C@@H](C)NC(=O)c2cc(-n3nnnc3C(C)(F)F)c3ncc(-c4ccc(C)s4)n3c2)n1` [Example 186], the IC50 is more than 10000 nM on P2X3 and 1 to 100 nM on P2X2/3.

Consider `CCC(=O)N(C)c1cc(C(=O)N[C@@H](C)c2nnc[nH]2)cn2c(-c3ccc(C)s3)cnc12` [Example 187], for which the IC50 lay within 1 to 100 nM at P2X3 and 100 to 1000 nM at P2X2/3.

As to `CCC(=O)N(c1cc(C(=O)N[C@@H](C)c2nnc[nH]2)cn2c(-c3ccc(C)s3)cnc12)C1CC1` [Example 188], the half-maximal inhibitory concentration (IC50) on P2X3 was in the range of 1 to 100 nM; on P2X2/3, 100 to 1000 nM.
